Where two headings read alike, the source gives them in different places.
Columns and labels:
in vivo = conditions: male, Sprague-Dawley, rat, 100 ug/kg
[1] = rat, in vivo
[2] = in vivo; cited from earlier work

SMILES: CSCC[C@@H]1NC(=O)[C@H](CC(C)C)NC(=O)[C@H](CCCNC(=N)N)NC(=O)[C@H](CO)NC(=O)[C@@H]2CSSC[C@@H]3NC(=O)[C@H](CO)NC(=O)CNC(=O)[C@H]([C@@H](C)O)NC(=O)[C@H](CSSC[C@H](N)C(=O)N[C@@H](CCCCN)C(=O)NCC(=O)N[C@@H](CCCCN)C(=O)NCC(=O)N[C@@H](C)C(=O)N[C@@H](CCCCN)C(=O)N2)NC(=O)[C@H](CSSC[C@@H](C(N)=O)NC(=O)[C@H](CCCCN)NC(=O)CNC(=O)[C@H](CO)NC(=O)[C@H](CCCNC(=N)N)NC3=O)NC(=O)[C@H](CC(=O)O)NC(=O)[C@H](Cc2ccc(O)cc2)NC1=O [ziconotide, Ziconotide]
- level at 0.25 h (in vivo): 992 ± 76.4 ng/mL
- AUC0-6 in CSF [1]: 1.57 ± 0.44 µg·min/mL
- Cmax in CSF [1]: 33.55 ± 7.39 ng/mL
- Tmax in CSF [1]: 0.25 h
- bioavailability (AUC0-6) in CSF, fold less than i.v administration [1]: ~ 3 fold
- elimination rate constant in CSF [1]: 1.01 ± 0.34 h⁻¹
- AUC0-6 in CSF ([1]; iv): 4.98 ± 0.98 µg·min/mL
- Cmax in CSF ([1]; iv): 37.78 ± 6.8 ng/mL
- Tmax in CSF ([1]; iv): 2 h
- occurrence of meningitis [2]: 3%

Source: PMC4747835 (Journal of controlled release : official journal of the …, 2015)
